According to patent publication US11596639B2, “Substituted indole Mcl-1 inhibitors” (Vanderbilt University, priority 2016, dated 2023):
Like-named read-outs stand apart in the source and are kept apart here.

What was measured:
Mcl-1 = Mcl-1 (Homo sapiens (Human), UniProt Q07820); assay: Fluorescence polarization anisotropy (FPA) competition assay, FITC-Bak or FITC-Bim BH3 peptide; format: binding; details: read-out: Ki for Inhibition of Mcl-1 by FPA assay
[1] = system: H929 human cancer cell lines; assay: Cellular viability / proliferation (Cell TiterGlo, 72 h); format: cell-based
In short: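 Plating is at 1,000 cells/well in 10% FBS medium; after 24 h, compound is added as a 2-fold series starting at 50 μM with under 1% DMSO.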

[2] = Homo sapiens, NCI-H929, 72 h, read-out: GI50 on cellular proliferation of H929 human cancer cell lines, H929 cells, 72 h, Cell TiterGlo, 10% FBS
[3] = read-out: GI50 on cellular proliferation of H929 human cancer cell lines, H929 cells, 72 h, Cell TiterGlo, 10% FBS

Sequence of Mcl-1 (Q07820 172-327): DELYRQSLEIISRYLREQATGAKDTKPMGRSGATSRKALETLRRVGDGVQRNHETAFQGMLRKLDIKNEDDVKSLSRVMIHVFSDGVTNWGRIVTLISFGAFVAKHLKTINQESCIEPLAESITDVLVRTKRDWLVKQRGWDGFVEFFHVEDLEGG

| SMILES | Ki (Mcl-1) [nM] | GI50 [1, 2] [nM] | GI50 [1, 3] [nM] |
| --- | --- | --- | --- |
| Cc1cc(OCCCc2c3n(c4c(-c5c(C)n[nH]c5C)c(Cl)ccc24)CCCN(c2cc(C(=O)O)cc4c2ccn4C)C3=O)cc(C)c1Cl [Example 72, 4-(8-chloro-11-(3-(4-chloro-3,5-dimethylphenoxy)propyl)-7-(3,5-dimethyl-1H-pyrazol-4-yl)-1-oxo-4,5-dihydro-1H-[1,4]diazepino[1,2-a]indol-2(3H)-yl)-1-methyl-1H-indole-6-carboxylic acid] | < 1 | 4700 |  |
| Cc1cc(OCCCc2c3n(c4c(-c5c(C)nn(C)c5C)c(Cl)ccc24)[C@H](C)CN(c2cn(C)c4ccc(-c5ncccn5)cc24)C3=O)cc(C)c1Cl [Example 394, (R)-7-Chloro-10-(3-(4-chloro-3,5-dimethylphenoxy)propyl)-4-methyl-2-(1-methyl-5-(pyrimidin-2-yl)-1H-indol-3-yl)-6-(1,3,5-trimethyl-1H-pyrazol-4-yl)-3,4-dihydropyrazino[1,2-a]indol-1(2H)-one] | 2.8 | 270 |  |
| Cc1cc(OCCCc2c3n(c4c(-c5c(C)nn(C)c5C)c(Cl)ccc24)[C@H](C)CN(c2cn(C)c4ccc(-c5ncn(CC6COC6)n5)cc24)C3=O)cc(C)c1Cl [Example 475, (R)-7-Chloro-10-(3-(4-chloro-3,5-dimethylphenoxy)propyl)-4-methyl-2-(1-methyl-5-(1-(oxetan-3-ylmethyl)-1H-1,2,4-triazol-3-yl)-1H-indol-3-yl)-6-(1,3,5-trimethyl-1H-pyrazol-4-yl)-3,4-dihydropyrazino[1,2-a]indol-1(2H)-one] | 7 | 250 |  |
| Cc1ccnc(Cn2c(C(=O)O)cc3cc(C)cc(N4C[C@@H](C)n5c(c(CCCOc6cc(C)c(Cl)c(C)c6)c6ccc(Cl)c(-c7c(C)nn(C)c7C)c65)C4=O)c32)c1 [Example 456, (R)-7-(7-Chloro-10-(3-(4-chloro-3,5-dimethylphenoxy)propyl)-4-methyl-1-oxo-6-(1,3,5-trimethyl-1H-pyrazol-4-yl)-3,4-dihydropyrazino[1,2-a]indol-2(1H)-yl)-5-methyl-1-((4-methylpyridin-2-yl)methyl)-1H-indole-2-carboxylic acid] | < 1 | < 200 |  |
| Cc1cc(OCCCc2c3n(c4c(-c5c(C)nn(C)c5C)c(Cl)ccc24)[C@H](C)CN(c2cc(OCC4COC4)cc4cc(C(=O)O)n(C)c24)C3=O)cc(C)c1Cl [Example 459, (R)-7-(7-Chloro-10-(3-(4-chloro-3,5-dimethylphenoxy)propyl)-4-methyl-1-oxo-6-(1,3,5-trimethyl-1H-pyrazol-4-yl)-3,4-dihydropyrazino[1,2-a]indol-2(1H)-yl)-1-methyl-5-(oxetan-3-ylmethoxy)-1H-indole-2-carboxylic acid] | 1 | 510 |  |
| CNC(=O)c1ccc2c(c1)c(N1C[C@@H](C)n3c(c(CCCOc4cc(C)c(Cl)c(C)c4)c4ccc(Cl)c(-c5c(C)nn(C)c5C)c43)C1=O)cn2C [Example 286, (R)-3-(7-chloro-10-(3-(4-chloro-3,5-dimethylphenoxy)propyl)-4-methyl-1-oxo-6-(1,3,5-trimethyl-1H-pyrazol-4-yl)-3,4-dihydropyrazino[1,2-a]indol-2(1H)-yl)-N,1-dimethyl-1H-indole-5-carboxamide] | 3.3 | 510 |  |
| Cc1cc(OCCCc2c3n(c4c(-c5c(C)ncnc5C)c(Cl)ccc24)[C@H](C)CN(c2cc(C(=O)O)c4ccn(C)c4c2)C3=O)cc(C)c1Cl [Example 152, 6-[(4R)-7-chloro-10-[3-(4-chloro-3,5-dimethyl-phenoxy)propyl]-6-(4,6-dimethylpyrimidin-5-yl)-4-methyl-1-oxo-3,4-dihydropyrazino[1,2-a]indol-2-yl]-1-methyl-indole-4-carboxylic acid] | < 1 | 850 |  |
| Cc1cc(OCCCc2c3n(c4c(-c5c(C)nn(CCN6CCCC6)c5C)c(Cl)ccc24)[C@H](C)CN(c2cn(C)c4ccc(C(=O)O)cc24)C3=O)cc(C)c1Cl [Example 263, (R)-3-(7-chloro-10-(3-(4-chloro-3,5-dimethylphenoxy)propyl)-6-(3,5-dimethyl-1-(2-(pyrrolidin-1-yl)ethyl)-1H-pyrazol-4-yl)-4-methyl-1-oxo-3,4-dihydropyrazino[1,2-a]indol-2(1H)-yl)-1-methyl-1H-indole-5-carboxylic acid] | 1.8 | 270 |  |
| Cc1cc(OCCCc2c3n(c4c(-c5c(C)nn(C)c5C)c(Cl)ccc24)[C@H](C)CN(c2cc(Cl)cc4cc(C(=O)O)oc24)C3=O)cc(C)c1Cl [Example 232, (R)-5Chloro-7-(7-chloro-10-(3-(4-chloro-3,5-dimethylphenoxy)propyl)-4-methyl-1-oxo-6-(1,3,5-trimethyl-1H-pyrazol-4-yl)-3,4-dihydropyrazino[1,2-a]indol-2(1H)-yl)benzofuran-2-carboxylic acid] | < 1 | 4000 |  |
| Cc1cc(OCCCc2c3n(c4c(-c5c(C)nn(C)c5C)c(Cl)ccc24)[C@H](C)CN(c2ccnc4ccc(C(=O)O)cc24)C3=O)cc(C)c1Cl [Example 172, (R)-4-(7-Chloro-10-(3-(4-chloro-3,5-dimethylphenoxy)propyl)-4-methyl-1-oxo-6-(1,3,5-trimethyl-1H-pyrazol-4-yl)-3,4-dihydropyrazino[1,2-a]indol-2(1H)-yl)quinoline-6-carboxylic acid] | < 1 | 320 |  |
| Cc1cc(OCCCc2c3n(c4c(-c5c(C)nn(C)c5C)c(Cl)ccc24)[C@H](C)CN(c2cc4ccc(C(=O)O)cc4n2C)C3=O)cc(C)c1Cl [Example 180, 2-[(4R)-7-chloro-10-[3-(4-chloro-3,5-dimethyl-phenoxy)propyl]-4-methyl-1-oxo-6-(1,3,5-trimethylpyrazol-4-yl)-3,4-dihydropyrazino[1,2-a]indol-2-yl]-1-methyl-indole-6-carboxylic acid] | 2.1 | 1500 |  |
| Cc1cc(OCCCc2c3n(c4c(-c5c(C)nn(C)c5C)c(Cl)ccc24)[C@H](C)CN(c2nn(C)c4cccc(C(=O)O)c24)C3=O)cc(C)c1Cl [Example 175, (R)-3-(7-Chloro-10-(3-(4-chloro-3,5-dimethylphenoxy)propyl)-4-methyl-1-oxo-6-(1,3,5-trimethyl-1H-pyrazol-4-yl)-3,4-dihydropyrazino[1,2-a]indol-2(1H)-yl)-1-methyl-1H-indazole-4-carboxylic acid] | < 1 |  | 340 |
| Cc1cc(N2C[C@@H](C)n3c(c(CCCOc4cc(C)c(Cl)c(C)c4)c4ccc(Cl)c(-c5c(C)nn(C)c5C)c43)C2=O)c2c(c1)c(C(=O)O)cn2C [Example 183, (R)-7-(7-chloro-10-(3-(4-chloro-3,5-dimethylphenoxy)propyl)-4-methyl-1-oxo-6-(1,3,5-trimethyl-1H-pyrazol-4-yl)-3,4-dihydropyrazino[1,2-a]indol-2(1H)-yl)-1,5-dimethyl-1H-indole-3-carboxylic acid] | < 1 |  | 360 |
| Cc1ccc(Cn2c(C(=O)O)cc3cccc(N4C[C@@H](C)n5c(c(CCCOc6cc(C)c(Cl)c(C)c6)c6ccc(Cl)c(-c7c(C)nn(C)c7C)c65)C4=O)c32)nc1 [Example 363, (R)-7-(7-Chloro-10-(3-(4-chloro-3,5-dimethylphenoxy)propyl)-4-methyl-1-oxo-6-(1,3,5-trimethyl-1H-pyrazol-4-yl)-3,4-dihydropyrazino[1,2-a]indol-2(1H)-yl)-1-((5-methylpyridin-2-yl)methyl)-1H-indole-2-carboxylic acid] | 1.6 | 1400 |  |
| Cc1cc(N2C[C@@H](C)n3c(c(CCCOc4cc(C)c(Cl)c(C)c4)c4ccc(Cl)c(-c5c(C)nn(C)c5C)c43)C2=O)c2c(c1)cc(C(=O)O)n2C [Example 201, (R)-7-(7-Chloro-10-(3-(4-chloro-3,5-dimethylphenoxy)propyl)-4-methyl-1-oxo-6-(1,3,5-trimethyl-1H-pyrazol-4-yl)-3,4-dihydropyrazino[1,2-a]indol-2(1H)-yl)-1,5-dimethyl-1H-indole-2-carboxylic acid] | < 1 | < 200 |  |
| Cc1cc(N2C[C@@H](C)n3c(c(CCCOc4cc(C)c(Cl)c(C)c4)c4ccc(Cl)c(-c5c(C)nn(C)c5C)c43)C2=O)c2c(c1)cc(C(=O)O)n2Cc1cccc(C)n1 [Example 457, (R)-7-(7-Chloro-10-(3-(4-chloro-3,5-dimethylphenoxy)propyl)-4-methyl-1-oxo-6-(1,3,5-trimethyl-1H-pyrazol-4-yl)-3,4-dihydropyrazino[1,2-a]indol-2(1H)-yl)-5-methyl-1-((6-methylpyridin-2-yl)methyl)-1H-indole-2-carboxylic acid] | < 1 | < 200 |  |
| Cc1cc(OCCCc2c3n(c4c(-c5c(C)nn(C)c5C)c(Cl)ccc24)CCCN(c2ccc4c(C(=O)O)cn(C)c4c2)C3=O)cc(C)c1Cl [Example 81, 6-(8-Chloro-11-(3-(4-chloro-3,5-dimethylphenoxy)propyl)-1-oxo-7-(1,3,5-trimethyl-1H-pyrazol-4-yl)-4,5-dihydro-1H-[1,4]diazepino[1,2-a]indol-2(3H)-yl)-1-methyl-1H-indole-3-carboxylic acid] | 2.4 | 2900 |  |
| Cc1cc(OCCCc2c3n(c4c(-c5c(C)ncnc5C)c(Cl)ccc24)[C@H](C)CN(c2cccc4cc(C(N)=O)n(C)c24)C3=O)cc(C)c1Cl [Example 384, (R)-7-(7-Chloro-10-(3-(4-chloro-3,5-dimethylphenoxy)propyl)-6-(4,6-dimethylpyrimidin-5-yl)-4-methyl-1-oxo-3,4-dihydropyrazino[1,2-a]indol-2(1H)-yl)-1-methyl-1H-indole-2-carboxamide] | 6.8 | 910 |  |
